Measurements from patent US20060275835A1, “Methods for identifying cell surface receptor protein modulators” (priority 2003, published 2006).

Experiments:
Type in all cases: cell-based
[1] = molecular target: T1, mGluR5 (Homo sapiens, UniProt P41594); assay: FLIPR Ca2+ flux assay in human mGluR5 CHONFAT/mGLAST cells; details: Fluo-4, FLIPR384, normalized to glutamate (10 μM) control maximum; EC50 values only in figure
T1 construct: expressed in transfected cells
Procedure: Agonists were added after 10 seconds of baseline determination. Data were normalized to a glutamate (10 μM) control maximum. Concentration-response curves were generated from mean data of 5 experiments. Error bars are SEM.
CHO cells expressing mGluR5 receptors (mGluR5 CHO cells) were plated in clear-bottomed, poly-D-lysine coated 384-well plates (Becton-Dickinson 35-6663 Franklin Lakes USA) in glutamate/glutamine-free medium using a Multidrop 384 cell dispenser (Thermo Labsystems, Franklin USA). The plated cells were grown overnight at 37° C. in the presence of 6% CO2. The following day, the cells were washed with 3×100 μl assay buffer (Hanks Balanced Salt Solution (Gibco 14025) containing 20 mM HEPES (Gibco 15630), 2.5 mM probenicid (Sigma P-8761), and 0.1% bovine serum albumin (Sigma) using an Embla cell washer (Skatron, Lier Norway). The cells were incubated with 1 μM Fluo-4AM (Molecular Probes) for 1 h at 37° C. and 6% CO2. The extracellular dye was removed by washing as described above. Ca^2+ flux was measured using FLIPR384, fluorometric imaging plate reader (Molecular Devices, Sunnyvale USA). For potency determination, the cells were pre-incubated with various concentrations of compound for 5 min and then stimulated for 3 min with either an EC20 or EC50 concentration of agonist (i.e. glutamate) for potentiation measurements or antagonist measurements, respectively.

[2] = molecular target: T1, mGluR5; assay: β-lactamase reporter gene assay in mGluR5CHONFAT co-expressing mGLAST
From the text: (§1) Aurora transcription based reporter cell lines were used to develop reporter gene assays for the mGluRs. The cell line, CHONFAT-β-lactamase, reports signaling through Gq-coupled receptors via an increase in intracellular calcium. The β-lactamase gene is under the transcriptional control of the nuclear factor of activated T-cells (N-FAT) promoter (reporting increased intracellular calcium). A second cell line Gqi5CHONFAT was utilized for Gi coupled mGluRs. This cell line contains a promiscuous G-protein that promotes coupling to a Gq signal transduction cascade. […] The production of β-lactamase resulting from the downstream signaling events of receptor activation is detected by loading cells with a fluorescent dye, CCF2-AM, a substrate cleavable by the β-lactamase enzyme. In its cleaved state, the substrate will fluoresce blue (EM460) when stimulated with UV light (395 nm). Noncleaved, the intact dye fluoresces green (EM530) (Science 1998, 279:84-88). The ratio of blue to green cells (Em460/530) is determined as a measure of signal transduction, with cells that have transduced a signal being blue and those that have not green.
Cells were plated at 80,000 cells per well in poly-D-lysine coated black clear bottom plates (Becton Dickinson) and grown in glutamate/glutamine free media (DMEM, -glutamine, 10% dialyzed fetal calf serum, 100 units/ml penicillin/streptomycin, 0.1 mM non-essential amino acids, 1 mM sodium pyruvate, 25 mM HEPES, 0.25 mg/mL zeocin, 10 μg/ml puromycin (Clontech 8052-2) and 1 mg/mL G418 for cell lines co-expressing mGluRs and mGLAST. All media was from GIBCO unless specified. Cells were grown overnight at 5% CO2, 37° C. The next day, media was aspirated and the cells were washed twice with serum-free DMEM and replaced with 100 μL of assay media (DMEM, glutamine free), 0.1% BSA, 25 mM HEPES. […] Plates were read 45-60 minutes later on a fluorescence plate reader (excitation 405±10 nm, emission 460±20 nm for blue; 530±15 nm. Wells containing dye and no cells were used to subtract background values.

[3] = molecular target: T1, mGluR5; assay: β-lactamase reporter gene assay in mGluR5CHONFAT cells without mGLAST co-expression; details: 1 μM quisqualate
From the text: as §1, with “green. […]” for “green.”

[4] = tested on: CHONFAT cells; assay: β-lactamase reporter gene assay in non-transfected CHONFAT cells; details: 200 nM thapsigargin; maximal fluorescence
From the text: as §1, with “green. […]” for “green.”

T1 sequence (P41594 21-1212): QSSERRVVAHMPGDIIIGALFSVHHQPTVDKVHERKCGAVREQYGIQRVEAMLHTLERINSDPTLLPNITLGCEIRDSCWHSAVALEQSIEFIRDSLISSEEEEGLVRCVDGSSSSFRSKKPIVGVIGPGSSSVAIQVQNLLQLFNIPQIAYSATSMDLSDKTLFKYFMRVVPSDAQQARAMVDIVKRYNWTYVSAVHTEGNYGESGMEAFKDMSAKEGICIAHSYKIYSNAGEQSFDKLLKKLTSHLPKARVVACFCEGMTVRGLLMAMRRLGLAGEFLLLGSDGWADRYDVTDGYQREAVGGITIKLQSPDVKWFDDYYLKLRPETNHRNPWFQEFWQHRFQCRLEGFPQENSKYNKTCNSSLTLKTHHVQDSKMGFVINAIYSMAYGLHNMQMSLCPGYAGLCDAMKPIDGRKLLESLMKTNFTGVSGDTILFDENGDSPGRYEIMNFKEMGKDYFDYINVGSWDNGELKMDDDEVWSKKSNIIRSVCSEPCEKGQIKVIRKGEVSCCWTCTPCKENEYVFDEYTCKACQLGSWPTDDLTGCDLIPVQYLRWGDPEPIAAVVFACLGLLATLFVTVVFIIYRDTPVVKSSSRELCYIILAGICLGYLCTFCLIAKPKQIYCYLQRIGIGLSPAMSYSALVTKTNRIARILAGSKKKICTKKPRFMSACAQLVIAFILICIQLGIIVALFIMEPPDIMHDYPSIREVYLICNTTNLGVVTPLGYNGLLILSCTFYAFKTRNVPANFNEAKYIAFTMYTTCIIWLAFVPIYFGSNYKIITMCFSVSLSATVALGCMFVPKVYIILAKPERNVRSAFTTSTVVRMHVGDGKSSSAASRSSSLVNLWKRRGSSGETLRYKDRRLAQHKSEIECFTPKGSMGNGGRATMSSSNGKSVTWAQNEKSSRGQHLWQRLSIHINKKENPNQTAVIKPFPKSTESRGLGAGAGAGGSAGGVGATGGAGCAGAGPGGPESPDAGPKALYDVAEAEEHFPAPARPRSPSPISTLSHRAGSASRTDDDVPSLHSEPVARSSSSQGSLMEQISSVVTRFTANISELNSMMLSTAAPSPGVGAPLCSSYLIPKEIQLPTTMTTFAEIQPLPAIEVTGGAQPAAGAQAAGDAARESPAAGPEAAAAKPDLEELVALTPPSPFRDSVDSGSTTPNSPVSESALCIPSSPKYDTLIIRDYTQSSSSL

NC(C(=O)O)c1cc(O)cc(O)c1 (centres unmarked) [3,5-DHPG]
activation of Ca^2+ transients [1]: activate Ca^2+ transients

N[C@@H](CCC(=O)O)C(=O)O [glutamate]
activation of Ca^2+ transients [1]: activate Ca^2+ transients

N[C@@H](Cn1oc(=O)[nH]c1=O)C(=O)O [quisqualate]
activation of Ca^2+ transients [1]: activate Ca^2+ transients | fluorescence ratio (EM460/530) ([2]; 10 μM quisqualate, with mGLAST co-expression): 1.35 | EC50 ([2]; dose response in the absence of positive allosteric modulator): 44 nM | EC50 ([2]; dose response in the presence of 10 μM positive allosteric modulator): 15 nM | fluorescence ratio (EM460/530) [3]: 0.85

C/C=C(/C)C(=O)O[C@H]1C(C)=C2[C@H]([C@@H]1OC(=O)CCCCCCC)[C@@](C)(OC(C)=O)C[C@H](OC(=O)CCC)[C@@]1(O)[C@H]2OC(=O)[C@@]1(C)O [thapsigargin]
fluorescence ratio (EM460/530) [4]: 1.0
